Read-outs that look alike come from different tables or passages of the source. Each block holds one molecule with its values, some of them ahead of it.
What was measured:
Format in all cases: physicochemical
[1] = Room temperature equilibrium solubility in aqueous suspensions; conditions: listed as Compound 1, Form A; for Total drug in solution: room temperature equilibrium, HPLC of supernatant
[2] = Hygroscopicity evaluation by DVS at 25° C.
Description: Hygroscopicity of Compound 1, Form A and Compound 1, Form B was evaluated by DVS at 25° C.

[3] = Solid state stability study
Excerpt: The two lots of Compound 1 were characterized by HPLC, PLM, XRPD, DSC, TGA, and KF. […] According to the stability study at different conditions, the two forms of compound were practically stable at different humidity for at least 4 weeks, with no XRPD pattern change and no growth of impurities were found.

[4] = Competitive slurries of Form B and C in process relevant solvents; conditions: 90° C. in DMSO
Description: Determination of the relative stabilities of Form B and Form C was undertaken to identify which material was more thermodynamically stable in process relevant solvents. As a suspected solvate was isolated from experiments where DMAC was used as a solvent, only DMSO and acetic acid were determined to be appropriate process solvents. Combinations of these solvents with relevant antisolvents were therefore selected for the competitive slurry experiments.
Compound 1 (from Example 2) was dispensed into HPLC vials. To these, 1 ml of selected solvents was subsequently added to give a suspension. Materials were slurried for 72 hours at 90° C., 50° C. or 25° C. with 500 rpm stirring. Material was subsequently isolated by centrifugation and analyzed by XRPD.

[5] = Solubility and metastable zone width by Crystal 16; conditions: damp material isolated from DMAC, dried
Description: A Crystal 16 crystallization system (Technobis, NL) was used to determine the solubility and metastable zone of the material as a function of temperature. Slurries of the API, in different overall concentrations, were prepared by adding a known amount of solid to a known amount of chilled solvent (between 0.5 and 1.5 ml) and stirred at 350 rpm using a magnetic bar. The saturation temperature was measured through cycles of heating and cooling from 20 to 90° C. at 0.5° C./min.
Upon increasing the temperature, the solid completely dissolved and the suspension became a clear solution such that the light transmission reached its maximum value. This temperature was assigned as the clear point, which was assumed to coincide with the saturation temperature. Then, by cooling the solution at a rate of 0.5° C./min, the temperature at which particles first formed was detected by a decrease in the light transmission. This was assigned as the cloud point. The points were fitted by a Van′t Hoff equation and the difference between the cloud and the clear points defined the metastable zone width (MSZW) of the system. The instrument control software was Crystallization Systems and the data were analyzed using Crystal Clear and Microsoft Excel.
The solubility of compound 1 (various masses) in DMAC and DMSO (1 ml) was analyzed on the Crystal 16 (between 25-90° C. for DMSO and 0-90° C. for DMAC). A heating/cooling rate of 0.5° C./min and a stirring rate of 300 rpm was used for all samples. The resulting turbidity/temperature plots were analyzed to obtain solubility curves and determine the metastable zone width. Any precipitated solids were isolated by filtration and analyzed by XRPD.

Total drug in solution ([1]; 0.2% HPMC aqueous suspension): 1.3 µg/mL
pH ([1]; 0.2% HPMC aqueous suspension): 7.2
Total drug in solution ([1]; 0.25% SLS aqueous suspension): 23.7 µg/mL
pH ([1]; 0.25% SLS aqueous suspension): 6.9
Total drug in solution ([1]; 20% HP-BCD aqueous suspension): 446.5 µg/mL
pH ([1]; 20% HP-BCD aqueous suspension): 5.7
XRPD after DVS test [2]: No form change but crystallinity
DVS Desorp. (%) ([2]; 0% RH, 1st Desorp.): 0.00%
DVS Sorp. (%) ([2]; 0% RH, 1st Sorp.): 0.00%
DVS Desorp. (%) ([2]; 0% RH, 2nd Desorp.): 0.00%
DVS Sorp. (%) ([2]; 0% RH, 2nd Sorp.): 0.00%
DVS Desorp. (%) ([2]; 10% RH, 1st Desorp.): 0.01%
DVS Sorp. (%) ([2]; 10% RH, 1st Sorp.): 0.00%
DVS Desorp. (%) ([2]; 10% RH, 2nd Desorp.): 0.01%
DVS Sorp. (%) ([2]; 10% RH, 2nd Sorp.): 0.00%
DVS Desorp. (%) ([2]; 20% RH, 1st Desorp.): 0.01%
DVS Sorp. (%) ([2]; 20% RH, 1st Sorp.): −0.01%
DVS Desorp. (%) ([2]; 20% RH, 2nd Desorp.): 0.01%
DVS Sorp. (%) ([2]; 20% RH, 2nd Sorp.): 0.00%
DVS Desorp. (%) ([2]; 30% RH, 1st Desorp.): 0.02%
DVS Sorp. (%) ([2]; 30% RH, 1st Sorp.): 0.00%
DVS Desorp. (%) ([2]; 30% RH, 2nd Desorp.): 0.02%
DVS Sorp. (%) ([2]; 30% RH, 2nd Sorp.): 0.01%
DVS Desorp. (%) ([2]; 40% RH, 1st Desorp.): 0.02%
DVS Sorp. (%) ([2]; 40% RH, 1st Sorp.): 0.00%
DVS Desorp. (%) ([2]; 40% RH, 2nd Desorp.): 0.02%
DVS Sorp. (%) ([2]; 40% RH, 2nd Sorp.): 0.01%
DVS Sorp. (%) ([2]; 50% RH, 1st Sorp.): 0.01%
DVS Desorp. (%) ([2]; 50% RH, 2nd Desorp.): 0.03%
DVS Sorp. (%) ([2]; 60% RH, 1st Sorp.): 0.01%
DVS Desorp. (%) ([2]; 60% RH, 2nd Desorp.): 0.03%
DVS Sorp. (%) ([2]; 70% RH, 1st Sorp.): 0.02%
DVS Desorp. (%) ([2]; 70% RH, 2nd Desorp.): 0.04%
DVS Sorp. (%) ([2]; 80% RH, 1st Sorp.): 0.02%
DVS Desorp. (%) ([2]; 80% RH, 2nd Desorp.): 0.04%
DVS Sorp. (%) ([2]; 90% RH, 1st Sorp.): 0.03%
DVS Desorp. (%) ([2]; 90% RH, 2nd Desorp.): 0.04%
DVS Sorp. (%) ([2]; 95% RH, 1st Sorp.): 0.01%
DVS Desorp. (%) ([2]; 95% RH, 2nd Desorp.): 0.01%
Hygroscopicity based on DVS results ([2]; listed as Compound 1, Form A): non-hygroscopic
Crystallinity (XRPD & PLM) ([3]; 4 weeks, 25° C./60% RH): Crystalline
Purity ([3]; 4 weeks, 25° C./60% RH): 99.48%
Weight loss (TGA) (~120° C.) ([3]; 4 weeks, 25° C./60% RH): 0.981%
Crystallinity (XRPD & PLM) ([3]; 4 weeks, 40° C./75% RH): Crystalline
Purity ([3]; 4 weeks, 40° C./75% RH): 99.46%
Weight loss (TGA) (~120° C.) ([3]; 4 weeks, 40° C./75% RH): 0.884%
Crystallinity (XRPD & PLM) ([3]; 6 weeks, 25° C./60% RH): Crystalline
Purity ([3]; 6 weeks, 25° C./60% RH): 99.54%
Water content ([3]; 6 weeks, 25° C./60% RH): 0.784%
Weight loss (TGA) (~120° C.) ([3]; 6 weeks, 25° C./60% RH): 0.831%
Crystallinity (XRPD & PLM) ([3]; 6 weeks, 40° C./75% RH): Crystalline
Purity ([3]; 6 weeks, 40° C./75% RH): 99.47%
Water content ([3]; 6 weeks, 40° C./75% RH): 0.547%
Weight loss (TGA) (~120° C.) ([3]; 6 weeks, 40° C./75% RH): 0.739%
Crystallinity (XRPD & PLM) ([3]; 8 weeks, 25° C./60% RH): Crystalline
Purity ([3]; 8 weeks, 25° C./60% RH): 99.51%
Water content ([3]; 8 weeks, 25° C./60% RH): 0.559%
Weight loss (TGA) (~120° C.) ([3]; 8 weeks, 25° C./60% RH): 0.946%
Crystallinity (XRPD & PLM) ([3]; 8 weeks, 40° C./75% RH): Crystalline
Purity ([3]; 8 weeks, 40° C./75% RH): 99.53%
Water content ([3]; 8 weeks, 40° C./75% RH): 0.608%
Weight loss (TGA) (~120° C.) ([3]; 8 weeks, 40° C./75% RH): 0.801%
Crystallinity (XRPD & PLM) ([3]; Initial): Crystalline
Purity ([3]; Initial): 99.46%
Water content ([3]; Initial): 0.513%
Weight loss (TGA) (~120° C.) ([3]; Initial): 0.722%
Relative thermodynamic stability [4]: most thermodynamically stable polymorph
SMILES: O=C(O)[C@H]1C[C@@H](N2CCc3oc(-c4ccc(OCc5ccc(Cl)cc5)cc4)nc3C2)C1 [Form A, (1s,3s)-3-(2-(4-((4-chlorobenzyl)oxy)phenyl)-6,7-dihydrooxazolo[4,5-c]pyridin-5(4H)-yl)cyclobutane-1-carboxylic acid]
XRPD after DVS test ([2]; listed as Compound 1, Form A): no form change but crystallinity decreased and peaks became broad

Form change upon drying (XRPD) [5]: converted to Form C
SMILES: O=C(O)[C@H]1C[C@@H](N2CCc3oc(-c4ccc(OCc5ccc(Cl)cc5)cc4)nc3C2)C1 [Form D, (1s,3s)-3-(2-(4-((4-chlorobenzyl)oxy)phenyl)-6,7-dihydrooxazolo[4,5-c]pyridin-5(4H)-yl)cyclobutane-1-carboxylic acid]

Reference: patent US11535632B2, “Solid forms of an S1P-receptor modulator” (ESCAPE Bio, Inc., priority 2019, dated 2022)
